Earlier results, collected in US6420552B1, “Syntheses of 4-alkyl chromogenic glycosides and 7-alkyl chromogenic glycosides of N-acetylneuraminic acids” (priority 1999, dated 2002).

What was measured:
[1] = test system: neuraminidase activity of parainfluenza types 1 and 2; settings: substrate activity, result in words
[2] = test system: neuraminidase activity of influenza types A and B; settings: substrate activity, result in words
[3] = test system: respiratory syncytial adenovirus; settings: substrate activity, result in words
[4] = biological target: neuraminidase from Vibrio cholerae (Vibrio cholerae serotype O1, UniProt P0C6E9); settings: 4-methylumbelliferyl α ketosides
Sequence of neuraminidase from Vibrio cholerae (P0C6E9 25-781): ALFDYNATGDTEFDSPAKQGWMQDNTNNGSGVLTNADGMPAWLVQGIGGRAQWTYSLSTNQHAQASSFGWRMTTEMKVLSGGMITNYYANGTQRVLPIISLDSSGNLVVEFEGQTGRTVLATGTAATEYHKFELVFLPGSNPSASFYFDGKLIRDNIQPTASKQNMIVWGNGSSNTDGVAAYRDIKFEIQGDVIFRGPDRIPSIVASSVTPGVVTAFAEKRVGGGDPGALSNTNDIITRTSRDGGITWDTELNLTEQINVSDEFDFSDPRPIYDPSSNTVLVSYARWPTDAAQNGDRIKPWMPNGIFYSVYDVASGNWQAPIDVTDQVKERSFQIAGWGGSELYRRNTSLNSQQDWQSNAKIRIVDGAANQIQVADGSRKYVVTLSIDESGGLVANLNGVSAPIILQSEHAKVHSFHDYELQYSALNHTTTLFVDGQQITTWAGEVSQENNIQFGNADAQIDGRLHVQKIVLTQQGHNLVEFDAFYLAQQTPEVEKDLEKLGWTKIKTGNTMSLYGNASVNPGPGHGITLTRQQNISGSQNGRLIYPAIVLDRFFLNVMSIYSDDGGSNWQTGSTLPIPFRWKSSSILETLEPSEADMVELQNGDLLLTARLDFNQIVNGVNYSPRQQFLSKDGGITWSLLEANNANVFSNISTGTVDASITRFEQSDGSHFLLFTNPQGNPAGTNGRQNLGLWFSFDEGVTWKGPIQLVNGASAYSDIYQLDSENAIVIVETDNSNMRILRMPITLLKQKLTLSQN

Compound	hydrolysis / colour development by neuraminidase activity of parainfluenza types 1 and 2 [1]	hydrolysis / colour development by neuraminidase activity of influenza types A and B [2]	hydrolysis by respiratory syncytial adenovirus [3]	glycosidic hydrolysis by neuraminidase from Vibrio cholerae [4]
5-bromo-3-indolyl 4-O-methyl Neu5Ac ketoside	acted upon	acted upon	not at all	–
COC1CC(Oc2c[nH]c3ccc(Br)cc23)(C(=O)O)OC(C(OC)C(O)CO)C1NC(C)=O (stereo not shown) [5-bromo-3-indolyl 4,7-di-O-methyl Neu5Ac ketoside]	–	selectively hydrolyzed	–	–
CC(=O)N[C@H]1[C@H](C[C@H](O)CO)OC(O)(C(=O)O)C[C@@H]1O (stereo partly shown) [7-deoxy Neu5Ac]	–	–	–	significantly slowed
CC(=O)N[C@H]1[C@H]([C@@H](O)[C@@H](O)CO)OC(O)(C(=O)O)C[C@@H]1O (stereo partly drawn) [7,8-(bis)epi Neu5Ac]	–	–	–	significantly slowed
CC(=O)N[C@@H]1CCC(O)(C(=O)O)O[C@H]1C[C@H](O)CO (stereo partly shown) [4,7-dideoxy Neu5Ac]	–	–	–	significantly slowed
